Organism: Rattus norvegicus
Assay: DrugMatrix - Regimen: Daily Repeat
Format: toxicity, organism-based, Sprague-Dawley
Parameters: regimen Daily Repeat, gender Male, age 6-8 weeks
Conditions: in vivo, po, route oral GAVAGE, vehicle 100 % WATER; for ABSOLUTE BASOPHIL / ABSOLUTE EOSINOPHIL / ABSOLUTE LYMPHOCYTE / ABSOLUTE MONOCYTE / ABSOLUTE SEGMENTED NEUTROPHIL / BASOPHIL / EOSINOPHIL / ERYTHROCYTE COUNT / HEMATOCRIT / HEMOGLOBIN / LEUKOCYTE COUNT / LYMPHOCYTE / MEAN CORPUSCULAR HEMOGLOBIN / MEAN CORPUSCULAR HEMOGLOBIN CONCENTRATION / MEAN CORPUSCULAR VOLUME / MONOCYTE / NEUTROPHIL / NUCLEATED RED BLOOD CELLS / PLATELET COUNT: tissue Blood; for ALANINE AMINOTRANSFERASE / ALBUMIN / ALKALINE PHOSPHATASE / ASPARTATE AMINOTRANSFERASE / BLOOD UREA NITROGEN / CARBON DIOXIDE / CHLORIDE / CHOLESTEROL / CREATINE PHOSPHOKINASE / CREATININE / GLUCOSE / LACTATE DEHYDROGENASE / LIPASE / PHOSPHORUS / POTASSIUM / SODIUM / TOTAL BILIRUBIN / TOTAL PROTEIN / URIC ACID: tissue Plasma
[1] = 0 mg/kg, 72 h, dose level Control, time 3 day
[2] = 0 mg/kg, 120 h, dose level Control, time 5 day
[3] = 100 mg/kg, 72 h, dose level High, time 3 day
[4] = 100 mg/kg, 120 h, dose level High, time 5 day

SMILES: CN(C)CCOC(c1ccccc1)c1ccccc1 [DIPHENHYDRAMINE]
- ABSOLUTE BASOPHIL [1]: 0 CELLS/uL
- ABSOLUTE EOSINOPHIL [1]: 20.17 CELLS/uL
- ABSOLUTE LYMPHOCYTE [1]: 12371.67 CELLS/uL
- ABSOLUTE MONOCYTE [1]: 166 CELLS/uL
- ABSOLUTE SEGMENTED NEUTROPHIL [1]: 1292.17 CELLS/uL
- BASOPHIL [1]: 0%
- EOSINOPHIL [1]: 0.17%
- ERYTHROCYTE COUNT [1]: 5.46 x10E6/uL
- HEMATOCRIT [1]: 34.38%
- HEMOGLOBIN [1]: 13.32 G/DL
- LEUKOCYTE COUNT [1]: 13.85 x10E3/uL
- LYMPHOCYTE [1]: 88.5%
- MEAN CORPUSCULAR HEMOGLOBIN [1]: 24.42 pg
- MEAN CORPUSCULAR HEMOGLOBIN CONCENTRATION [1]: 38.7 G/DL
- MEAN CORPUSCULAR VOLUME [1]: 63.07 fL
- MONOCYTE [1]: 1.17%
- NEUTROPHIL [1]: 10.17%
- NUCLEATED RED BLOOD CELLS [1]: 0.17 /100WBC
- PLATELET COUNT [1]: 1193.5 x10E3/uL
- ALANINE AMINOTRANSFERASE [1]: 54.5 u/L
- ALBUMIN [1]: 4.02 G/DL
- ALKALINE PHOSPHATASE [1]: 346.5 u/L
- ASPARTATE AMINOTRANSFERASE [1]: 103.17 u/L
- BLOOD UREA NITROGEN [1]: 16.5 mg/dL
- CARBON DIOXIDE [1]: 29.83 mmol/L
- CHLORIDE [1]: 99.5 MEQ/L
- CHOLESTEROL [1]: 72.5 mg/dL
- CREATINE PHOSPHOKINASE [1]: 532.5 u/L
- CREATININE [1]: 0.18 mg/dL
- GLUCOSE [1]: 168.5 mg/dL
- LACTATE DEHYDROGENASE [1]: 536.5 u/L
- LIPASE [1]: 11.17 u/L
- PHOSPHORUS [1]: 11.48 mg/dL
- POTASSIUM [1]: 5.95 MEQ/L
- SODIUM [1]: 140.5 MEQ/L
- TOTAL BILIRUBIN [1]: 0.18 mg/dL
- TOTAL PROTEIN [1]: 5.77 G/DL
- URIC ACID [1]: 1.42 mg/dL
- ABSOLUTE BASOPHIL [2]: 0 CELLS/uL
- ABSOLUTE EOSINOPHIL [2]: 22.83 CELLS/uL
- ABSOLUTE LYMPHOCYTE [2]: 12202.83 CELLS/uL
- ABSOLUTE MONOCYTE [2]: 158 CELLS/uL
- ABSOLUTE SEGMENTED NEUTROPHIL [2]: 1283 CELLS/uL
- BASOPHIL [2]: 0%
- EOSINOPHIL [2]: 0.17%
- ERYTHROCYTE COUNT [2]: 5.88 x10E6/uL
- HEMATOCRIT [2]: 36.62%
- HEMOGLOBIN [2]: 14.07 G/DL
- LEUKOCYTE COUNT [2]: 13.67 x10E3/uL
- LYMPHOCYTE [2]: 89.5%
- MEAN CORPUSCULAR HEMOGLOBIN [2]: 23.95 pg
- MEAN CORPUSCULAR HEMOGLOBIN CONCENTRATION [2]: 38.43 G/DL
- MEAN CORPUSCULAR VOLUME [2]: 62.28 fL
- MONOCYTE [2]: 1.17%
- NEUTROPHIL [2]: 9.17%
- NUCLEATED RED BLOOD CELLS [2]: 0.17 /100WBC
- PLATELET COUNT [2]: 1198 x10E3/uL
- ALANINE AMINOTRANSFERASE [2]: 51 u/L
- ALBUMIN [2]: 4.3 G/DL
- ALKALINE PHOSPHATASE [2]: 343 u/L
- ASPARTATE AMINOTRANSFERASE [2]: 89.83 u/L
- BLOOD UREA NITROGEN [2]: 17.67 mg/dL
- CARBON DIOXIDE [2]: 27.17 mmol/L
- CHLORIDE [2]: 98.33 MEQ/L
- CHOLESTEROL [2]: 82.5 mg/dL
- CREATINE PHOSPHOKINASE [2]: 533.33 u/L
- CREATININE [2]: 0.18 mg/dL
- GLUCOSE [2]: 152.67 mg/dL
- LACTATE DEHYDROGENASE [2]: 220.33 u/L
- LIPASE [2]: 11.5 u/L
- PHOSPHORUS [2]: 11.25 mg/dL
- POTASSIUM [2]: 6.29 MEQ/L
- SODIUM [2]: 140.53 MEQ/L
- TOTAL BILIRUBIN [2]: 0.22 mg/dL
- TOTAL PROTEIN [2]: 6.12 G/DL
- URIC ACID [2]: 1.42 mg/dL
- ABSOLUTE BASOPHIL [3]: 0 CELLS/uL
- ABSOLUTE EOSINOPHIL [3]: 48.67 CELLS/uL
- ABSOLUTE LYMPHOCYTE [3]: 13023.67 CELLS/uL
- ABSOLUTE MONOCYTE [3]: 77 CELLS/uL
- ABSOLUTE SEGMENTED NEUTROPHIL [3]: 750.67 CELLS/uL
- BASOPHIL [3]: 0%
- EOSINOPHIL [3]: 0.33%
- ERYTHROCYTE COUNT [3]: 5.83 x10E6/uL
- HEMATOCRIT [3]: 36.17%
- HEMOGLOBIN [3]: 14.33 G/DL
- LEUKOCYTE COUNT [3]: 13.9 x10E3/uL
- LYMPHOCYTE [3]: 93.67%
- MEAN CORPUSCULAR HEMOGLOBIN [3]: 24.6 pg
- MEAN CORPUSCULAR HEMOGLOBIN CONCENTRATION [3]: 39.67 G/DL
- MEAN CORPUSCULAR VOLUME [3]: 62.07 fL
- MONOCYTE [3]: 0.67%
- NEUTROPHIL [3]: 5.33%
- NUCLEATED RED BLOOD CELLS [3]: 0 /100WBC
- PLATELET COUNT [3]: 1203 x10E3/uL
- ALANINE AMINOTRANSFERASE [3]: 46.67 u/L
- ALBUMIN [3]: 4 G/DL
- ALKALINE PHOSPHATASE [3]: 345.33 u/L
- ASPARTATE AMINOTRANSFERASE [3]: 88.67 u/L
- BLOOD UREA NITROGEN [3]: 16.67 mg/dL
- CARBON DIOXIDE [3]: 30.33 mmol/L
- CHLORIDE [3]: 100.33 MEQ/L
- CHOLESTEROL [3]: 78 mg/dL
- CREATINE PHOSPHOKINASE [3]: 422.33 u/L
- CREATININE [3]: 0.14 mg/dL
- GLUCOSE [3]: 146 mg/dL
- LACTATE DEHYDROGENASE [3]: 334.67 u/L
- LIPASE [3]: 11.67 u/L
- PHOSPHORUS [3]: 12.1 mg/dL
- POTASSIUM [3]: 6.05 MEQ/L
- SODIUM [3]: 141 MEQ/L
- TOTAL BILIRUBIN [3]: 0.17 mg/dL
- TOTAL PROTEIN [3]: 5.67 G/DL
- URIC ACID [3]: 1.3 mg/dL
- ABSOLUTE BASOPHIL [4]: 0 CELLS/uL
- ABSOLUTE EOSINOPHIL [4]: 0 CELLS/uL
- ABSOLUTE LYMPHOCYTE [4]: 12726.67 CELLS/uL
- ABSOLUTE MONOCYTE [4]: 228 CELLS/uL
- ABSOLUTE SEGMENTED NEUTROPHIL [4]: 1012 CELLS/uL
- BASOPHIL [4]: 0%
- EOSINOPHIL [4]: 0%
- ERYTHROCYTE COUNT [4]: 5.75 x10E6/uL
- HEMATOCRIT [4]: 34.8%
- HEMOGLOBIN [4]: 13.73 G/DL
- LEUKOCYTE COUNT [4]: 13.97 x10E3/uL
- LYMPHOCYTE [4]: 91.33%
- MEAN CORPUSCULAR HEMOGLOBIN [4]: 23.9 pg
- MEAN CORPUSCULAR HEMOGLOBIN CONCENTRATION [4]: 39.47 G/DL
- MEAN CORPUSCULAR VOLUME [4]: 60.53 fL
- MONOCYTE [4]: 1.67%
- NEUTROPHIL [4]: 7%
- NUCLEATED RED BLOOD CELLS [4]: 0 /100WBC
- PLATELET COUNT [4]: 1281 x10E3/uL
- ALANINE AMINOTRANSFERASE [4]: 54.33 u/L
- ALBUMIN [4]: 3.93 G/DL
- ALKALINE PHOSPHATASE [4]: 386 u/L
- ASPARTATE AMINOTRANSFERASE [4]: 79.33 u/L
- BLOOD UREA NITROGEN [4]: 16.67 mg/dL
- CARBON DIOXIDE [4]: 25.67 mmol/L
- CHLORIDE [4]: 99 MEQ/L
- CHOLESTEROL [4]: 60 mg/dL
- CREATINE PHOSPHOKINASE [4]: 323.33 u/L
- CREATININE [4]: 0.11 mg/dL
- GLUCOSE [4]: 154.67 mg/dL
- LACTATE DEHYDROGENASE [4]: 155.33 u/L
- LIPASE [4]: 11.33 u/L
- PHOSPHORUS [4]: 11.47 mg/dL
- POTASSIUM [4]: 6.2 MEQ/L
- SODIUM [4]: 141.53 MEQ/L
- TOTAL BILIRUBIN [4]: 0.2 mg/dL
- TOTAL PROTEIN [4]: 5.5 G/DL
- URIC ACID [4]: 1.97 mg/dL

Source: ChEMBL document CHEMBL3885881, “DrugMatrix”
